Source: EP2792354A2, “COMPOSITION OF […] ACUTE AND CHRONIC HEPATIC ENCE[…] METHOD FOR TREATING ACUTE AND CHRONIC HEPATIC ENCEPHALOPATHY” (Obshchestvo S Ogranichennoj Otvetstvennostju …, priority 2011, dated 2012)

Assays:
[1] = tested on: acute HE, induced by ammonia injection in mice; assay: CCl4 pretreatment 24 hours before lethal dose of NH4Cl (preconditioning), animal survival; format: in vivo; details: CCl4 2 ml/kg wt 24 hours before NH4Cl LD100+; NaCl instead of protector
Procedure: Table 1. […] Introduction of various doses of NH4 (12-14 mmol / kg) at 24 hours after administration of these toxins, can cause the development of acute HE and death of most or all animals. However, this effect depends on the dose used toxins CCl4. It can be seen that low doses of CCl4 (2ml/kg), being administered to intact animals , results in almost total protection against the lethal dose of NH4, resulting in the survival of 80 % of treated animals, i.e. there is the effect of preconditioning.

[2] = type 2 diabetes (D2) mice, CCl4, injections 3 days; alive animals
Procedure: In the experiments, male albino mice weighing 20 - 35 g after 12 hours of fasting. • 1. […] The recommended classification of the stages of HE for laboratory animals was used (116). • 2.1 The models of acute liver failure , resulting in necrosis and fatty degeneration of the liver cells due to oxidative stress , by introducing :CCl4 (2 - 4ml/kg subcutaneously or i.p.); acetaminophen-AAF (300 - 500mg/kg i.p.) or thioacetamide (TAA , 300 - 500mg / kg i.p.), in accordance with known data (103,104,116-118). […] Control the level of glucose, insulin , ALT , bilirubin, glycerol, triglycerides and fatty acids in the blood and in the liver, histological examination of the liver was carried out. • 2.2.2 The model of type 2 diabetes, according to the data of (115), in which after 1 - 2 months of feeding fat, animals were injected i.p. 50mg/kg of streptozotocin (to suppress the activity of β-cells) and then 15 days later , after controlling for the main indicators of the blood ,were used in the experiments.
The comparison of the efficacy of compositions ∑3 and LoLa on the alive diabetic animals treated with CCL4 and protectors used (according to pp.4-6 of Tab.2)

For `ClC(Cl)(Cl)Cl` [CCl4], the “% survival” value [1] was 80%.

In the case of `[Cl-].[Na+]` [NaCl], the AAT plasma [2] is reported as 1540±350 U/L, the “Glucose Plasma” value [2] is reported as 13,1±0,8 mMol and the “LCFA Plasma” value [2] is reported as 1,55±0,28 mMol.
